Test results from article PMC6199744, “Development of Chemical Proteomics for the Folateome and Analysis of the Kinetoplastid Folateome” (ACS Infectious Diseases, 2018).
Read-outs that look alike come from different tables or passages of the source.

Tests used:
Type in all cases: binding
[1] = target: T1, HeLa cell extract proteins (Homo sapiens, UniProt Q9NNW5)
T1 construct: endogenous in cells; host or cells: HeLa cell extract
T1 sequence (Q9NNW5 1-1121): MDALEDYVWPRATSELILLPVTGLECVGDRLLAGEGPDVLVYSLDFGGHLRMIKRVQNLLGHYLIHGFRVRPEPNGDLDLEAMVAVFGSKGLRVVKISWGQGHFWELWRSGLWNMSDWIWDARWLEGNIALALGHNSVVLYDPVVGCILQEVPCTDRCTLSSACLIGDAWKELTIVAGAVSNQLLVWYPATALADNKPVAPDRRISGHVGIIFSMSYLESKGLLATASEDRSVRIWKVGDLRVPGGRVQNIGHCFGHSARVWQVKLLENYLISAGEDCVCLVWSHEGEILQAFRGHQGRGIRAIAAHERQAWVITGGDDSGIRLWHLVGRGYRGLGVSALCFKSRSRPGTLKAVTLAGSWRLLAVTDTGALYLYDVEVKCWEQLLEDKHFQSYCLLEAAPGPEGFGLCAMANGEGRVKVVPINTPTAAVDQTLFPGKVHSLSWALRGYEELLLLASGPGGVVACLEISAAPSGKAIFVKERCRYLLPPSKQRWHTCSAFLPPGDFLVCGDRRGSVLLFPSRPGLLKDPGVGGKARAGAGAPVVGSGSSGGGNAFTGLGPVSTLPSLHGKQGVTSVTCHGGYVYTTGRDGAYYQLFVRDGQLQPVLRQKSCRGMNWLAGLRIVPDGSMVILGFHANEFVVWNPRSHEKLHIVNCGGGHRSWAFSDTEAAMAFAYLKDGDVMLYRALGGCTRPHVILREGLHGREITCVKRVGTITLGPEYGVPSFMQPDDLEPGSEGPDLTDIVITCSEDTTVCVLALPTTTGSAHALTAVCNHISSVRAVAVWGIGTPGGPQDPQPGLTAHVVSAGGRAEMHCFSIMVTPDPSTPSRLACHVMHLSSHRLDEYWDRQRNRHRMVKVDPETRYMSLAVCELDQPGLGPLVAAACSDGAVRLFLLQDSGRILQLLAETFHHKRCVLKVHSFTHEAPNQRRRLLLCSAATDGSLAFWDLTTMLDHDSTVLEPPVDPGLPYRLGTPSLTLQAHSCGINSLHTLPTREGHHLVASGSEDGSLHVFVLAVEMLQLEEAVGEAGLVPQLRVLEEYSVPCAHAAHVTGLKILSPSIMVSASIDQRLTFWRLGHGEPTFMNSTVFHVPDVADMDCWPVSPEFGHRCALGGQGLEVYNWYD

[2] = target: T2, HeLa cell extract proteins (Homo sapiens, UniProt P55084)
T2 construct: endogenous in cells; host or cells: HeLa cell extract
T2 sequence (P55084 34-474): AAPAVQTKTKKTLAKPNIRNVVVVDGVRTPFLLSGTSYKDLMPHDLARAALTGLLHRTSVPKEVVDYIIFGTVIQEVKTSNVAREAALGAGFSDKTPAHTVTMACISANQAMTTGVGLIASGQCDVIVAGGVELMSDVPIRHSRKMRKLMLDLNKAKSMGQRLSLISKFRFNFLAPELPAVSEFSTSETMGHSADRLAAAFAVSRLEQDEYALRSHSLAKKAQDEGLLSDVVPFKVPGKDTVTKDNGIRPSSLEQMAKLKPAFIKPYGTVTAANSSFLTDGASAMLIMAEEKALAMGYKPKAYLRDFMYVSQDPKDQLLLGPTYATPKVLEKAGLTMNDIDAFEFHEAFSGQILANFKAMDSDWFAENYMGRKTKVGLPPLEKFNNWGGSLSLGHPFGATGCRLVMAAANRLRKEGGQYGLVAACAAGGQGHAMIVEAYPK

[3] = target: T3, HeLa cell extract proteins (Homo sapiens, UniProt Q9Y490)
T3 construct: endogenous in cells; host or cells: HeLa cell extract

[4] = target: T4, HeLa cell extract proteins (Homo sapiens, UniProt O95347); conditions: protein SMC2; HeLa
T4 construct: endogenous in cells; host or cells: HeLa cell extract

[5] = target: T5, HeLa cell extract proteins (Homo sapiens, UniProt Q9NQC3); conditions: HeLa; protein RTN4
T5 construct: endogenous in cells; host or cells: HeLa cell extract
T5 sequence (Q9NQC3 1-1192): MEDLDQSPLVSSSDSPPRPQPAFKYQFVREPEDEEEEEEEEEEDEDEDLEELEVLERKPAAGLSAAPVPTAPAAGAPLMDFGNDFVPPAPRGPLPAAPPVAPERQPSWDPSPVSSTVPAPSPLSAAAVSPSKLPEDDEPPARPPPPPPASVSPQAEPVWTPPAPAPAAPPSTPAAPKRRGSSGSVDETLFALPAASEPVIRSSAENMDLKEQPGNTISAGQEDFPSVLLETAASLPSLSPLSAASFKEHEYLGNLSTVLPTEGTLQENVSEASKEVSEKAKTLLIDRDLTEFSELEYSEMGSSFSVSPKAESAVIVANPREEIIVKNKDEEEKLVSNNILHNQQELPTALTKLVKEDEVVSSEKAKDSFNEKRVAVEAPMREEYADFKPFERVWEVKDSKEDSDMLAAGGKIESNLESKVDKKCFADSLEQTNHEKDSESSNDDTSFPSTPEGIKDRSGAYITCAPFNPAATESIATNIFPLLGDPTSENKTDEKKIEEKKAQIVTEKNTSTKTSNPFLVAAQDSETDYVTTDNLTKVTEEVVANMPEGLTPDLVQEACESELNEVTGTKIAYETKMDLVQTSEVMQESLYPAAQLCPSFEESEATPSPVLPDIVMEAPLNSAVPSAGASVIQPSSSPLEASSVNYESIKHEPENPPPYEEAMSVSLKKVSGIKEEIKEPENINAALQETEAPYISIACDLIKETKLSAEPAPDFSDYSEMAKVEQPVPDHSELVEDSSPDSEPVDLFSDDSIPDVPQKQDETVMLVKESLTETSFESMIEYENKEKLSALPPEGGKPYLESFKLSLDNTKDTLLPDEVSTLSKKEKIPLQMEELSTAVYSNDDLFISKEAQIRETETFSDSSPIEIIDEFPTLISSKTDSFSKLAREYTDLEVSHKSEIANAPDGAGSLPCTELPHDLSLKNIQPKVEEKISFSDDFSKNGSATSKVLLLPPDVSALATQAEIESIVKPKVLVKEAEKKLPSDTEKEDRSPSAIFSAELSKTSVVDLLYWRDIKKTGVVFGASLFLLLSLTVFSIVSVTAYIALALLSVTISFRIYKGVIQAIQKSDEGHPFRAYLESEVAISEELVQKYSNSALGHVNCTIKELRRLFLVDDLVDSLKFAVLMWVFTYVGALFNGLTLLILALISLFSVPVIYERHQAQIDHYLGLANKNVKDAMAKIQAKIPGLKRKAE

T4 sequence (O95347 whole entry): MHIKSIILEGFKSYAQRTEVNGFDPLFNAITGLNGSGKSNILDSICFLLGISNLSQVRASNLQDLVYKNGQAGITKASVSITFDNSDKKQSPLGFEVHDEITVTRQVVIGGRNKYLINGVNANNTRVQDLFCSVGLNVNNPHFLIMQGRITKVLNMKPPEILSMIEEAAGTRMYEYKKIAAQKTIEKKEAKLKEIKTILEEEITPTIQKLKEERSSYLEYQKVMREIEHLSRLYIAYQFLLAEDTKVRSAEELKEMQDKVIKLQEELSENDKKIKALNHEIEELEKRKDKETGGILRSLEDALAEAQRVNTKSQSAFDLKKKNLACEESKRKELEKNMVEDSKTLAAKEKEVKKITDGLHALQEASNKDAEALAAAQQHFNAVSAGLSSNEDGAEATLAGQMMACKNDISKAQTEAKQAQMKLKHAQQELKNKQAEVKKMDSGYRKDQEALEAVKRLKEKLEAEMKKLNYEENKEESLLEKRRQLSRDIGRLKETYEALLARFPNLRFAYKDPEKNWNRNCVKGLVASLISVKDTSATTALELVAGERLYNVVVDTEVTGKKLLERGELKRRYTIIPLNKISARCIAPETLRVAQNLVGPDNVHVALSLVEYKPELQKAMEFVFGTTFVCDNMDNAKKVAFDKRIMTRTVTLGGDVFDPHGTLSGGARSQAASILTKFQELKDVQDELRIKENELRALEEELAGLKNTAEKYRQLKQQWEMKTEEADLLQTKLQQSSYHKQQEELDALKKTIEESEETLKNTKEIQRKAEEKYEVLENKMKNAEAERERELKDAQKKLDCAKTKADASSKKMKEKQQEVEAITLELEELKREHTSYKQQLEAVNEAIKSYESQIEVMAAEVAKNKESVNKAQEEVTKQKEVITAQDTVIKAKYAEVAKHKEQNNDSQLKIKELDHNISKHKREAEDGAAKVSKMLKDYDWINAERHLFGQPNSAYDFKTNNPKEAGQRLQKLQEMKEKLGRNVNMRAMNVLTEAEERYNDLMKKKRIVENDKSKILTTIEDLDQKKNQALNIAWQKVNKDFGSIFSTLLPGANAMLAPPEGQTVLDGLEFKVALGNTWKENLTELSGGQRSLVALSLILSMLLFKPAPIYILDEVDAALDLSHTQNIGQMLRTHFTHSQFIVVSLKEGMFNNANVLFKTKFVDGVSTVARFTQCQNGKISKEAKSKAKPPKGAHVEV
T3 sequence (Q9Y490 whole entry): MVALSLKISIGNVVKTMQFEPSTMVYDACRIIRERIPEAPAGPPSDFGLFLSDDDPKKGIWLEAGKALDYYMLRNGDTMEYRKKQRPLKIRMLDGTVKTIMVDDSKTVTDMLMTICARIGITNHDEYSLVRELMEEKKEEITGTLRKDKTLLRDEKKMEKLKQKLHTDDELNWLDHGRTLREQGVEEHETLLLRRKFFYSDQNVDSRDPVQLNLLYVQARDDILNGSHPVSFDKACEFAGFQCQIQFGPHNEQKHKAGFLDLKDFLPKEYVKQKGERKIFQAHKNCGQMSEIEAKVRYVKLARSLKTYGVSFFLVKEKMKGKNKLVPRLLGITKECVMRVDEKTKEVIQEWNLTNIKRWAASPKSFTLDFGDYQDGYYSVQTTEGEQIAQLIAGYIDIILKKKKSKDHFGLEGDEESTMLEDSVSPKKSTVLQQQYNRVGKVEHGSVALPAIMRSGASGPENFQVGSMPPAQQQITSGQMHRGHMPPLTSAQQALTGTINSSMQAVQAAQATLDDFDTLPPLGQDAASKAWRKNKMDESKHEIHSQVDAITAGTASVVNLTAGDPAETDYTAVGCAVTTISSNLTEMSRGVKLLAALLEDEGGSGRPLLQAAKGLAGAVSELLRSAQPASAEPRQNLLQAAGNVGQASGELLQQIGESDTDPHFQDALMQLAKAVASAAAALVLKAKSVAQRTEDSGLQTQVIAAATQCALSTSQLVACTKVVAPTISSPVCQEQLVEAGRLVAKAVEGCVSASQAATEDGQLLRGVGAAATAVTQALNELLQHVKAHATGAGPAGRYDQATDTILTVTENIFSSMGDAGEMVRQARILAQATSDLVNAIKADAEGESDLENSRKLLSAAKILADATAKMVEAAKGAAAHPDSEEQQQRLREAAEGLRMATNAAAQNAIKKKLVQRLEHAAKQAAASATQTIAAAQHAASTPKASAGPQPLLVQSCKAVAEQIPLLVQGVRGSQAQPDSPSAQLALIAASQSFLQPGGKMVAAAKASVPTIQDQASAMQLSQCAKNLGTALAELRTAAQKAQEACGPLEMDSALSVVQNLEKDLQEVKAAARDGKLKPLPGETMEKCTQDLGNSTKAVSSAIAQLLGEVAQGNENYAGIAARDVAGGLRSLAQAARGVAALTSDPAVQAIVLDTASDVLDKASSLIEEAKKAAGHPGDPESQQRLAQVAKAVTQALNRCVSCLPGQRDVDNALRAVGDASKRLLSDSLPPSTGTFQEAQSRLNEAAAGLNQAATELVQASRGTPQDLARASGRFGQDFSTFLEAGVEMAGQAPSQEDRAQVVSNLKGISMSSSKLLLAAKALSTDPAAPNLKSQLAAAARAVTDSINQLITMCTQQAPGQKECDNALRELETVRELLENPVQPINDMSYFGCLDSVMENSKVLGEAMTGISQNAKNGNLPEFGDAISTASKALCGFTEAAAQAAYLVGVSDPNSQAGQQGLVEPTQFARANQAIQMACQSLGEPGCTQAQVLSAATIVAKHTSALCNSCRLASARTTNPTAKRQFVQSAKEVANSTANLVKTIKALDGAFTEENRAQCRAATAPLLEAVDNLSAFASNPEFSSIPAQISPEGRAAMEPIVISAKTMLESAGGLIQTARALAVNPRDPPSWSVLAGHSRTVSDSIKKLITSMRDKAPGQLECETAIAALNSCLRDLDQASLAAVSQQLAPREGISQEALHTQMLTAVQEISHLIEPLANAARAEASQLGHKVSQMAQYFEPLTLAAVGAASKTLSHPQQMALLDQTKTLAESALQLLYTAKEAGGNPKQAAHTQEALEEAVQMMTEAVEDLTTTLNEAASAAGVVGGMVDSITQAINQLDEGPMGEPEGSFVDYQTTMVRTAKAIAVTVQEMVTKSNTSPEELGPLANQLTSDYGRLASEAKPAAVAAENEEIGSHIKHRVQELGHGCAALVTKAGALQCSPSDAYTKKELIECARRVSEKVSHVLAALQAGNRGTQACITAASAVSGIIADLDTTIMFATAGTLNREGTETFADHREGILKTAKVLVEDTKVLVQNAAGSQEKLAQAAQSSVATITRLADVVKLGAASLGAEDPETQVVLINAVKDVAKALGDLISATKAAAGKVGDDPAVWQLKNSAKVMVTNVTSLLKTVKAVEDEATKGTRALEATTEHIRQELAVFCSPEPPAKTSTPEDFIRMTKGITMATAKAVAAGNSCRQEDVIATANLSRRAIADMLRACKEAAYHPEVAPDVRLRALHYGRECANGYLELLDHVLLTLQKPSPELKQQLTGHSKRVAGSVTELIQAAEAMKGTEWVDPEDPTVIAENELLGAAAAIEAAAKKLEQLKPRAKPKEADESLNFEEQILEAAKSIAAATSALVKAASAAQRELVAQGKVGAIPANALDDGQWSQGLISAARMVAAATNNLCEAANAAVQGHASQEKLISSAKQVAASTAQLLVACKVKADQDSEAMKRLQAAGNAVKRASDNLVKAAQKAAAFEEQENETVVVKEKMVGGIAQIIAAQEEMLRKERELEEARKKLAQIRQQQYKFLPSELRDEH

Row | Structure (SMILES) | fold changes relative to vehicle control ([1]; HeLa, protein WDR6) | fold changes relative to vehicle control ([2]; HeLa, protein HADHB) | fold changes relative to vehicle control ([3]; protein TLN1, HeLa) | fold changes relative to vehicle control [4] | fold changes relative to vehicle control [5] | also measured
1 | Nc1nc2c(c(=O)[nH]1)N(C=O)C(CNc1ccc(C(=O)N[C@@H](CCC(=O)O)C(=O)O)cc1)CN2 (stereo partly drawn) [LEU, leucovorin] | 0.96 | 0.85 | 0.67 |  |  | 
2 | Nc1nc2[nH]cc(CCc3ccc(C(=O)N[C@@H](CCC(=O)O)C(=O)O)cc3)c2c(=O)[nH]1 [PTX, pemetrexed] |  |  |  |  |  | fold changes relative to vehicle control [1]: 1.1; fold changes relative to vehicle control [2]: 0.94; fold changes relative to vehicle control [3]: 1.01
3 | CCCCCCOc1ccc(Cc2cnc(N)nc2N)cc1 [compound 1] |  |  |  | 1.4 | 0.39 | 
4 | CCCCCCOc1cccc(Cc2cnc(N)nc2N)c1 [compound 2] |  |  |  | 1.36 | 1.21 | 
5 | Nc1nc2cccc(-c3ccccc3)c2n1Cc1ccc(Cl)c(Cl)c1 [compound 3] |  |  |  | 1.11 | 1 | 
6 | NCCOCCOCC(=O)Nc1nc2ncc(CNc3ccc(C(=O)NC(CCC(=O)O)C(=O)O)cc3)nc2c(=O)[nH]1 (stereo not drawn) [compound 6] | 1.19 | 1.12 | 0.72 |  |  | 
7 | NCCCNc1ccc(C(=O)NC(CCC(=O)O)C(=O)O)cc1 (stereo not drawn) [compound 7] | 1.06 | 1.04 | 0.78 |  |  | 
